Reference: patent publication US10519177B2, “Heterocyclic compounds and uses thereof” (Plexxikon Inc., priority 2013, dated 2019)
Where two headings read alike, the source gives them in different places.

What was measured:
MV-4-11 cells = assay: Oncology cell growth assay MV-4-11 (CellTiter Glo); assay type: cell-based; settings: Homo sapiens, MV4-11, 72 h, read-out: Cell activity (IC50 μM) MV-4-11 3d-Growth
Summary of the method: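 MV-4-11 AML cells (MLL-AF4), 3000 per well, exposed to 8-point 1:3 compound titration from 10 μM top concentration (0.2% DMSO) for 72 h. Viability by CellTiter Glo luminescence, normalized to DMSO controls; pIC50 from four-parameter curve fit.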

BRD4-BD12 (1-477) = BRD4-BD12 (1-477) (Homo sapiens (Human), UniProt O60885); assay: Alphascreen binding assay BRD4-BD12; settings: BRD4(1 2) H4; read-out: Biochemical activity (IC50 μM) BRD4(1 2) H4
Summary of the method: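 First, compound was preincubated 1 h at room temperature with the His-tagged BRD4 protein (BD1 44-164 or tandem BD12 1-477) and acetylated H4 peptide. Next, donor and acceptor beads were added at 7.5 μg/ml final. After 30 min, AlphaScreen emission was recorded.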

bromodomain = assay: at least one of the bromodomain cell assays of Example 57; assay type: cell-based; settings: at least one of the bromodomain cell assays described in Example 57; read-out: IC50 in at least one of the bromodomain cell assays

Row | Compound | IC50 (MV-4-11 cells; MV-4-11, 3d growth) [µM] | IC50 (BRD4-BD12 (1-477)) [µM] | IC50 (bromodomain) [nM] | IC50 (MV-4-11 cells) [µM]
1 | COC(=O)c1ccc(-c2cn([C@@H](C)c3ccccc3)c3cc(-c4c(C)noc4C)cnc23)cc1 [P-0559, methyl 4-[6-(3,5-dimethylisoxazol-4-yl)-1-[(1S)-1-phenylethyl]pyrrolo[3,2-b]pyridin-3-yl]benzoate] | < 1 | < 1 | < 10000 | 
2 | Cn1cc(-c2cn(CC3CCC(F)(F)CC3)c3cc(-c4ccc(O)nc4)cnc23)cn1 [P-0437, 5-[1-[(4,4-difluorocyclohexyl)methyl]-3-(1-methylpyrazol-4-yl)pyrrolo[3,2-b]pyridin-6-yl]pyridin-2-ol] | < 1 | < 1 | < 10000 | 
3 | Cc1noc(C)c1-c1cnc2c(-c3ccc(CC(=O)O)cc3)cn(CC3(C)CCOCC3)c2c1 [P-0776, 2-[4-[6-(3,5-dimethylisoxazol-4-yl)-1-[(4-methyltetrahydrpyran-4-yl)methyl]pyrrolo[3,2-b]pyridin-3-yl]phenyl]acetic acid] | 1 to 10 | < 1 | < 10000 | 
4 | Cc1noc(C)c1-c1cnc2c(-c3ccc(C#N)nc3)cn(CC3CCC(F)(F)CC3)c2c1 [P-0594, 5-[1-[(4,4-difluorocyclohexyl)methyl]-6-(3,5-dimethylisoxazol-4-yl)pyrrolo[3,2-b]pyridin-3-yl]pyridine-2-carbonitrile] | < 1 | < 1 | < 10000 | 
5 | Cc1ccc(-c2cn(CC3(C)CCOCC3)c3cc(-c4c(C)noc4C)cnc23)cc1 [P-0794, 3,5-dimethyl-4-[1-[(4-methyltetrahydropyran-4-yl)methyl]-3-(p-tolyl)pyrrolo[3,2-b]pyridin-6-yl]isoxazole] | 1 to 10 | < 1 | < 10000 | 
6 | [2H]C([2H])(C1CCC(F)(F)CC1)n1cc(-c2cnn(CCC#N)c2)c2ncc(-c3c(C)noc3C)cc21 [P-0339, 3-[4-[1-[dideuterio-(4,4-difluorocyclohexyl)methyl]-6-(3,5-dimethylisoxazol-4-yl)pyrrolo[3,2-b]pyridin-3-yl)pyrazol-1-yl]propanenitrile] |  | < 1 | < 10000 | < 1
7 | Cc1noc(C)c1-c1cnc2c(I)cn(C(CC#N)C3CCCC3)c2c1 (stereo not drawn) [P-0251, 3-cyclopentyl-3-[6-(3,5-dimethylisoxazol-4-yl)-3-iodo-pyrrolo[3,2-b]pyridin-1-yl]propanenitrile] |  | < 1 | < 10000 | < 1
8 | Cc1noc(C)c1-c1cnc2c(-c3cnn(C(F)F)c3)cn([C@H](C)c3ccccn3)c2c1 [P-0515, 4-[3-[1-(difluoromethyl)pyrazol-4-yl]-1-[(1R)-1-(2-pyridyl)ethyl]pyrrolo[3,2-b]pyridin-6-yl]-3,5-dimethyl-isoxazole] | < 1 | < 1 | < 10000 | 
9 | [2H]C([2H])(C1CCC(F)(F)CC1)n1cc(-c2cn(C)nc2C(F)(F)F)c2ncc(-c3c(C)noc3C)cc21 [P-0337, 4-[1-[dideuterio-(4,4-difluorocyclohexyl)methyl]-3-[1-methyl-3-(trifluoromethyl)pyrazol-4-yl]pyrrolo[3,2-b]pyridin-6-yl]-3,5-dimethyl-isoxazole] |  | < 1 | < 10000 | < 1
10 | Cc1noc(C)c1-c1cnc2c(-c3cnn(CC(F)(F)F)c3)cn([C@H](C)c3ccccn3)c2c1 [P-0513, 3,5-dimethyl-4-[1-[(1R)-1-(2-pyridyl)ethyl]-3-[1-(2,2,2-trifluoroethyl)pyrazol-4-yl]pyrrolo[3,2-b]pyridin-6-yl]isoxazole] | < 1 | < 1 | < 10000 | 
11 | Cc1noc(C)c1-c1cnc2c(-c3ccc(S(N)(=O)=O)cc3)cn(CC3(F)CCCCC3)c2c1 [P-0379, 4-[6-(3,5-dimethylisoxazol-4-yl)-1-[(1-fluorocyclohexyl)methyl]pyrrolo[3,2-b]pyridin-3-yl]benzenesulfonamide] |  | < 1 | < 10000 | < 1
12 | Cc1noc(C)c1-c1cnc2c(-c3ccc(C(=O)O)c(O)c3)cn(CC3(F)CCCCC3)c2c1 [P-0502, 4-[6-(3,5-dimethylisoxazol-4-yl)-1-[(1-fluorocyclohexyl)methyl]pyrrolo[3,2-b]pyridin-3-yl]-2-hydroxy-benzoic acid] | < 1 | < 1 | < 10000 | 
13 | [2H]C([2H])(C1CC(F)(F)C1)n1cc(-c2cnc(C3CC3)nc2)c2ncc(-c3c(C)noc3C)cc21 [P-0259, 4-[3-(2-cyclopropylpyrimidin-5-yl)-1-[dideuterio-(3,3-difluorocyclobutyl)methyl]pyrrolo[3,2-b]pyridin-6-yl]-3,5-dimethyl-isoxazole] |  | < 1 | < 10000 | < 1
14 | COC(=O)c1ccc(-c2cn(CC3CCCCCC3)c3cc(-c4c(C)noc4C)cnc23)cc1 [P-0585, methyl 4-[1-(cycloheptylmethyl)-6-(3,5-dimethylisoxazol-4-yl)pyrrolo[3,2-b]pyridin-3-yl]benzoate] | 1 to 10 | < 1 | < 10000 | 
15 | [2H]C([2H])(C1CCC(F)(F)CC1)n1cc(C(=O)O)c2ncc(-c3c(C)noc3C)cc21 [P-0459, 1-[dideuterio-(4,4-difluorocyclohexyl)methyl]-6-(3,5-dimethylisoxazol-4-yl)pyrrolo[3,2-b]pyridine-3-carboxylic acid] | 1 to 10 | < 1 | < 10000 | 
16 | Cc1noc(C)c1-c1cnc2c(-c3ccnc(C4CC4)c3)cn(CC3CCC(F)(F)CC3)c2c1 [P-0407, 4-[3-(2-cyclopropyl-4-pyridyl)-1-[(4,4-difluorocyclohexyl)methyl]pyrrolo[3,2-b]pyridin-6-yl]-3,5-dimethyl-isoxazole] |  | < 1 | < 10000 | < 1
17 | Cc1noc(C)c1-c1cnc2c(-c3ccc(C(C)(C)C)cc3)cn(CC3CCC(F)(F)CC3)c2c1 [P-0802, 4-[3-(4-tert-butylphenyl)-1-[(4,4-difluorocyclohexyl)methyl]pyrrolo[3,2-b]pyridin-6-yl]-3,5-dimethyl-isoxazole] | 1 to 10 | < 1 | < 10000 | 
18 | Cc1noc(C)c1-c1cnc2c(-c3ccc(C(N)=O)cc3)cn(CC3CCC(F)(F)CC3)c2c1 [P-0389, 4-[1-[(4,4-difluorocyclohexyl)methyl]-6-(3,5-dimethylisoxazol-4-yl)pyrrolo[3,2-b]pyridin-3-yl]benzamide] |  | < 1 | < 10000 | < 1
19 | Cc1noc(C)c1-c1cnc2c(-c3cnn(C(F)F)c3)cn(CC3(F)CCC(O)CC3)c2c1 (stereo not drawn) [P-0261, 4-[[3-[1-(difluoromethyl)pyrazol-4-yl]-6-(3,5-dimethylisoxazol-4-yl)pyrrolo[3,2-b]pyridin-1-yl]methyl]-4-fluoro-cyclohexanol] |  | < 1 | < 10000 | < 1
20 | CNC(=O)Nc1ccc(-c2cn(CC3CCC(F)(F)CC3)c3cc(-c4c(C)noc4C)cnc23)cc1 [P-0561, 1-[4-[1-[(4,4-difluorocyclohexyl)methyl]-6-(3,5-dimethylisoxazol-4-yl)pyrrolo[3,2-b]pyridin-3-yl]phenyl]-3-methyl-urea] | < 1 | < 1 | < 10000 | 
21 | Cc1noc(C)c1-c1cnc2c(-c3cnn(CC(F)(F)F)c3)cn([C@H](C)c3ccc(F)cc3)c2c1 [P-0351, 4-[1-[(1R)-1-(4-fluorophenyl)ethyl]-3-[1-(2,2,2-trifluoroethyl)pyrazol-4-yl]pyrrolo[3,2-b]pyridin-6-yl]-3,5-dimethyl-isoxazole] |  | < 1 | < 10000 | < 1
22 | Cc1noc(C)c1-c1cnc2c(-c3cc(C(=O)O)cs3)cn(CC3CCC(F)(F)CC3)c2c1 [P-0486, 5-[1-[(4,4-difluorocyclohexyl)methyl]-6-(3,5-dimethylisoxazol-4-yl)pyrrolo[3,2-b]pyridin-3-yl]thiophene-3-carboxylic acid] | < 1 | < 1 | < 10000 | 
23 | Cc1noc(C)c1-c1cnc2c(-c3ccc(C=O)cc3)cn(CC3CCC(F)(F)CC3)c2c1 [P-0600, 4-[1-[(4,4-difluorocyclohexyl)methyl]-6-(3,5-dimethylisoxazol-4-yl)pyrrolo[3,2-b]pyridin-3-yl]benzaldehyde] | < 1 | < 1 | < 10000 | 
24 | Cc1noc(C)c1-c1cnc2c(I)cn(CC3CCC4(CC3)CC4)c2c1 [P-0580, 4-[3-iodo-1-(spiro[2.5]octan-6-ylmethyl)pyrrolo[3,2-b]pyridin-6-yl]-3,5-dimethyl-isoxazole] | < 1 | < 1 | < 10000 | 
25 | Cc1noc(C)c1-c1cnc2c(-c3ccc(C(=O)O)s3)cn(CC3(F)CCCCC3)c2c1 [P-0478, 5-[6-(3,5-dimethylisoxazol-4-yl)-1-[(1-fluorocyclohexyl)methyl]pyrrolo[3,2-b]pyridin-3-yl]thiophene-2-carboxylic acid] | < 1 | < 1 | < 10000 | 
26 | Cc1noc(C)c1-c1cnc2c(-c3ccc(C(=O)OC(C)C)cc3)cn(CC3CCCCC3)c2c1 [P-0708, isopropyl 4-[1-(cyclohexylmethyl)-6-(3,5-dimethylisoxazol-4-yl)pyrrolo[3,2-b]pyridin-3-yl]benzoate] | < 1 | < 1 | < 10000 | 
